Data on nine compounds can be found in PubChem BioAssay AID1259407 (Chemical Carcinogenesis Research Information System (CCRIS), 2018).

Each structure is given as a SMILES string. Active and inactive are the calls of the source. The rule behind the calls is not given here.

The test system of the series is CCRIS mutagenicity, Ames/micronucleus/aberration tests. Kind of series: CCRIS mutagenicity studies.
The mark [1] stands for this setting: Test System: AMES SALMONELLA TYPHIMURIUM, Strain/Indicator: TA100, Metabolic Activation: RAT, INTACT HEPATOCYTES, AROCLOR 1254, Method: PREINCUBATION
The mark [2] stands for this setting: Test System: AMES SALMONELLA TYPHIMURIUM, Strain/Indicator: TA100, Metabolic Activation: RAT, NADPH-FORTIFIED HOMOGENIZED HEPATOCYTES, AROCLOR 1254, Method: PREINCUBATION
Where [3] appears, read: Test System: AMES SALMONELLA TYPHIMURIUM, Strain/Indicator: TA98, Metabolic Activation: NONE, Method: PREINCUBATION
Where [4] appears, read: Test System: AMES SALMONELLA TYPHIMURIUM, Strain/Indicator: TA100, Metabolic Activation: NONE, Method: PREINCUBATION
[5] abbreviates: Test System: AMES SALMONELLA TYPHIMURIUM, Strain/Indicator: TA98, Metabolic Activation: NONE, Method: STANDARD PLATE.
[6] abbreviates: Test System: AMES SALMONELLA TYPHIMURIUM, Strain/Indicator: TA100, Metabolic Activation: NONE, Method: STANDARD PLATE.
[7] abbreviates: Test System: AMES SALMONELLA TYPHIMURIUM, Strain/Indicator: TA100, Metabolic Activation: RAT, LIVER, S-9, AROCLOR 1254, Method: STANDARD PLATE.

Turning to `[Si]`, the mutagenic call is, setting by setting: (Test System: AMES SALMONELLA TYPHIMURIUM, Strain/Indicator: TA98, Metabolic Activation: RAT LIVER S-9, PHENOBARBITAL AND BETA-NAPHTHOFLAVONE, Method: GAS EXPOSURE) “active; positive”; (Test System: AMES SALMONELLA TYPHIMURIUM, Strain/Indicator: TA98, Metabolic Activation: RAT, LIVER, S-9, PHENOBARBITAL AND 5,6-BENZOFLAVONE, Method: GAS EXPOSURE) “active; positive”; (Test System: AMES SALMONELLA TYPHIMURIUM, Strain/Indicator: TA100, Metabolic Activation: NONE, Method: GAS EXPOSURE) “inactive; negative”; (Test System: AMES SALMONELLA TYPHIMURIUM, Strain/Indicator: TA100, Metabolic Activation: RAT LIVER S-9, PHENOBARBITAL AND BETA-NAPHTHOFLAVONE, Method: GAS EXPOSURE) “inactive; negative”; (Test System: AMES SALMONELLA TYPHIMURIUM, Strain/Indicator: TA100, Metabolic Activation: RAT, LIVER, S-9, PHENOBARBITAL AND 5,6-BENZOFLAVONE, Method: GAS EXPOSURE) “inactive; negative”; (Test System: AMES SALMONELLA TYPHIMURIUM, Strain/Indicator: TA1535, Metabolic Activation: NONE, Method: GAS EXPOSURE) “inactive; negative”. Besides, the mutagenic call by setting is: (Test System: AMES SALMONELLA TYPHIMURIUM, Strain/Indicator: TA1535, Metabolic Activation: RAT LIVER S-9, PHENOBARBITAL AND BETA-NAPHTHOFLAVONE, Method: GAS EXPOSURE) “inactive; negative”; (Test System: AMES SALMONELLA TYPHIMURIUM, Strain/Indicator: TA1535, Metabolic Activation: RAT, LIVER, S-9, PHENOBARBITAL AND 5,6-BENZOFLAVONE, Method: GAS EXPOSURE) “inactive; negative”; (Test System: AMES SALMONELLA TYPHIMURIUM, Strain/Indicator: TA1537, Metabolic Activation: RAT, LIVER, S-9, PHENOBARBITAL AND 5,6-BENZOFLAVONE, Method: GAS EXPOSURE) “active; positive”; (Test System: E. COLI, Strain/Indicator: WP2 UVRA, Metabolic Activation: NONE, Method: GAS EXPOSURE) “inactive; negative”; (Test System: E. COLI, Strain/Indicator: WP2 UVRA, Metabolic Activation: RAT, LIVER, S-9, PHENOBARBITAL AND 5,6-BENZOFLAVONE, Method: GAS EXPOSURE) “inactive; negative”; (Test System: E.COLI, Strain/Indicator: WP2UVRA, Metabolic Activation: NONE, Method: GAS EXPOSURE) “inactive; negative”. Under “Test System: E.COLI, Strain/Indicator: WP2UVRA, Metabolic Activation: RAT LIVER S-9, PHENOBARBITAL AND BETA-NAPHTHOFLAVONE, Method: GAS EXPOSURE”, the mutagenic call is “inactive; negative”.

Take `Cc1cc2cc3ccccc3cc2c2ccccc12`: the mutagenic call under setting [1] was “active; positive”; the mutagenic call under setting [2] is “active; positive”; the mutagenic call (Test System: AMES SALMONELLA TYPHIMURIUM, Strain/Indicator: TA100, Metabolic Activation: RAT, SONICATED HEPATOCYTES, AROCLOR 1254, Method: PREINCUBATION) is “active; positive”.

For the compound `Cc1ccc2ccc3cc4ccccc4c4ccc1c2c34`, the mutagenic call was “active; positive” under setting [1] and “active; positive” under setting [2].

Turning to `CCN(CC)C(=S)SSC[C@H](NC(=O)CC[C@H](N)C(=O)O)C(=O)NCC(=O)O`, the mutagenic call reads like this: under setting [3], “inactive; negative”; (Test System: AMES SALMONELLA TYPHIMURIUM, Strain/Indicator: TA98, Metabolic Activation: RAT, LIVER, S-9, AROCLOR 1254, Method: PREINCUBATION) “inactive; negative”; under setting [4], “inactive; negative”; (Test System: AMES SALMONELLA TYPHIMURIUM, Strain/Indicator: TA100, Metabolic Activation: RAT, LIVER, S-9, AROCLOR 1254, Method: PREINCUBATION) “inactive; negative”.

With `CCCCC(CC)COC(=O)c1ccc(C(=O)O)cc1` (stereo not drawn), the mutagenic call is “inactive; negative” under setting [5]; “inactive; negative” (Test System: AMES SALMONELLA TYPHIMURIUM, Strain/Indicator: TA98, Metabolic Activation: RAT, LIVER, S-9, AROCLOR 1254, Method: STANDARD PLATE); “inactive; negative” under setting [6]; “inactive; negative” under setting [7]; “inactive; negative” (Test System: AMES SALMONELLA TYPHIMURIUM, Strain/Indicator: TA1535, Metabolic Activation: NONE, Method: STANDARD PLATE); “inactive; negative” (Test System: AMES SALMONELLA TYPHIMURIUM, Strain/Indicator: TA1535, Metabolic Activation: RAT, LIVER, S-9, AROCLOR 1254, Method: STANDARD PLATE). Moreover, the mutagenic call is “inactive; negative” (Test System: AMES SALMONELLA TYPHIMURIUM, Strain/Indicator: TA1537, Metabolic Activation: NONE, Method: STANDARD PLATE); “inactive; negative” (Test System: AMES SALMONELLA TYPHIMURIUM, Strain/Indicator: TA1537, Metabolic Activation: RAT, LIVER, S-9, AROCLOR 1254, Method: STANDARD PLATE); “inactive; negative” (Test System: AMES SALMONELLA TYPHIMURIUM, Strain/Indicator: TA1538, Metabolic Activation: NONE, Method: STANDARD PLATE); “inactive; negative” (Test System: AMES SALMONELLA TYPHIMURIUM, Strain/Indicator: TA1538, Metabolic Activation: RAT, LIVER, S-9, AROCLOR 1254, Method: STANDARD PLATE).

Turning to `O=C1C=Cc2c(ccc3ccccc23)C1=O`, the mutagenic call was “inactive; negative” (Test System: AMES SALMONELLA TYPHIMURIUM, Strain/Indicator: TA97A, Metabolic Activation: NONE, Method: PREINCUBATION); “inactive; negative” under setting [3]; “inactive; negative” under setting [4]; “inactive; negative” (Test System: AMES SALMONELLA TYPHIMURIUM, Strain/Indicator: TA102, Metabolic Activation: NONE, Method: PREINCUBATION); “active; positive” (Test System: AMES SALMONELLA TYPHIMURIUM, Strain/Indicator: TA104, Metabolic Activation: NONE, Method: PREINCUBATION).

With `Cn1sc(Cl)cc1=O` (tested in a mixture with another compound), the mutagenic call runs as follows: under setting [6], “active; positive”; under setting [7], “active; positive”.

For the compound `O[C@H]([C@H](O)[C@@H](O)CBr)[C@H](O)CBr`, the mutagenic call is “inactive; negative” (Test System: AMES SALMONELLA TYPHIMURIUM, Strain/Indicator: TA98, Metabolic Activation: HAMSTER, LIVER, S-9, AROCLOR 1254 (10%), Method: PREINCUBATION); “inactive; negative” under setting [3]; “inactive; negative” (Test System: AMES SALMONELLA TYPHIMURIUM, Strain/Indicator: TA98, Metabolic Activation: RAT, LIVER, S-9, AROCLOR 1254 (10%), Method: PREINCUBATION); “active; positive” (Test System: AMES SALMONELLA TYPHIMURIUM, Strain/Indicator: TA100, Metabolic Activation: HAMSTER, LIVER, S-9, AROCLOR 1254 (10%), Method: PREINCUBATION); “active; positive” under setting [4]; “active; positive” (Test System: AMES SALMONELLA TYPHIMURIUM, Strain/Indicator: TA100, Metabolic Activation: RAT, LIVER, S-9, AROCLOR 1254 (10%), Method: PREINCUBATION). The mutagenic call (Test System: AMES SALMONELLA TYPHIMURIUM, Strain/Indicator: TA1535, Metabolic Activation: HAMSTER, LIVER, S-9, AROCLOR 1254 (10%), Method: PREINCUBATION) is “active; positive”; the mutagenic call (Test System: AMES SALMONELLA TYPHIMURIUM, Strain/Indicator: TA1535, Metabolic Activation: NONE, Method: PREINCUBATION) is “active; positive”; the mutagenic call (Test System: AMES SALMONELLA TYPHIMURIUM, Strain/Indicator: TA1535, Metabolic Activation: RAT, LIVER, S-9, AROCLOR 1254 (10%), Method: PREINCUBATION) was “active; positive”; the mutagenic call (Test System: AMES SALMONELLA TYPHIMURIUM, Strain/Indicator: TA1537, Metabolic Activation: HAMSTER, LIVER, S-9, AROCLOR 1254 (10%), Method: PREINCUBATION) is “inactive; negative”; the mutagenic call (Test System: AMES SALMONELLA TYPHIMURIUM, Strain/Indicator: TA1537, Metabolic Activation: NONE, Method: PREINCUBATION) was “inactive; negative”; the mutagenic call (Test System: AMES SALMONELLA TYPHIMURIUM, Strain/Indicator: TA1537, Metabolic Activation: RAT, LIVER, S-9, AROCLOR 1254 (10%), Method: PREINCUBATION) is “inactive; negative”.

Regarding `O=[N+]([O-])c1ccc(-c2nc(NCCO)c3ccccc3n2)s1`, the mutagenic call runs as follows: under setting [5], “active; positive”; under setting [6], “active; positive”.
